In the supplement of paper PMC11150407:

Compound: Nc1ccccc1NC(=O)c1ccc(CNC(=O)OCc2cccnc2)cc1 [Entinostat]
Experiment: area under dose-response viability curve (log dose) (AUC (arbitrary)); higher = less sensitive
Conditions: 72 h
Protocol: (§1)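 Primary AML blasts from patients (3q26 EVI1-high and other AML) were treated for 72 h with a dose series of each drug. Viability was measured with an ATP-based CellTiter-Glo assay. The area under the curve of the log-transformed dose-response data was computed in GraphPad Prism; a lower AUC means greater sensitivity.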

Point of comparison: PR#010 (EVI1 status: EVI1Low), “area under dose-response viability curve” value 147. Against it:
- PR#002 (EVI1 status: EVI1High) — lower, 145
- PR#003 (EVI1 status: EVI1High) — lower, 142
- PR#004 (EVI1 status: EVI1High) — lower, 84.7
- PR#005 (EVI1 status: EVI1High) — lower, 107
- PR#006 (EVI1 status: EVI1High) — lower, 120
- PR#007 (EVI1 status: EVI1High) — higher, 172
- PR#008 (EVI1 status: EVI1High) — lower, 82.3
- PR#011 (EVI1 status: EVI1Low) — higher, 200
- PR#012 (EVI1 status: EVI1Low) — lower, 139
- PR#013 (EVI1 status: EVI1Low) — higher, 153
- PR#014 (EVI1 status: EVI1Low) — lower, 133
- PR#015 (EVI1 status: EVI1Low) — lower, 145
- PR#016 (EVI1 status: EVI1Low) — higher, 159
- PR#017 (EVI1 status: EVI1Low) — higher, 191
- PR#018 (EVI1 status: EVI1Low) — higher, 211
- PR#019 (EVI1 status: EVI1Low) — higher, 232
- PR#020 (EVI1 status: EVI1Low) — higher, 182
- PR#021 (EVI1 status: EVI1Low) — higher, 215
- PR#022 (EVI1 status: EVI1Low) — higher, 185
- PR#023 (EVI1 status: EVI1High) — higher, 162
- PR#024 (EVI1 status: EVI1High) — higher, 167
- PR#025 (EVI1 status: EVI1Low) — higher, 256
- PR#026 (EVI1 status: EVI1Low) — higher, 205
- PR#027 (EVI1 status: EVI1Low) — higher, 197
- PR#028 (EVI1 status: EVI1Low) — higher, 198
- PR#029 (EVI1 status: EVI1Low) — higher, 213
- PR#030 (EVI1 status: EVI1Low) — higher, 237
- PR#031 (EVI1 status: EVI1Low) — higher, 229
- PR#032 (EVI1 status: EVI1Low) — lower, 144
- PR#033 (EVI1 status: EVI1Low) — higher, 183
- PR#034 (EVI1 status: EVI1Low) — higher, 195

Compound: O=C(/C=C/c1cccc(S(=O)(=O)Nc2ccccc2)c1)NO [Belinostat]
Experiment: as above
Conditions: 72 h
Protocol: as §1

Point of comparison: PR#024 (EVI1 status: EVI1High), “area under dose-response viability curve” value 122. Against it:
- PR#002 (EVI1 status: EVI1High) — higher, 179
- PR#003 (EVI1 status: EVI1High) — higher, 156
- PR#004 (EVI1 status: EVI1High) — lower, 121
- PR#005 (EVI1 status: EVI1High) — higher, 138
- PR#006 (EVI1 status: EVI1High) — higher, 138
- PR#007 (EVI1 status: EVI1High) — higher, 157
- PR#008 (EVI1 status: EVI1High) — lower, 81.8
- PR#010 (EVI1 status: EVI1Low) — higher, 177
- PR#011 (EVI1 status: EVI1Low) — higher, 209
- PR#012 (EVI1 status: EVI1Low) — higher, 192
- PR#013 (EVI1 status: EVI1Low) — higher, 169
- PR#014 (EVI1 status: EVI1Low) — higher, 195
- PR#015 (EVI1 status: EVI1Low) — higher, 227
- PR#016 (EVI1 status: EVI1Low) — higher, 156
- PR#017 (EVI1 status: EVI1Low) — higher, 160
- PR#018 (EVI1 status: EVI1Low) — higher, 189
- PR#019 (EVI1 status: EVI1Low) — higher, 225
- PR#020 (EVI1 status: EVI1Low) — higher, 246
- PR#021 (EVI1 status: EVI1Low) — higher, 202
- PR#022 (EVI1 status: EVI1Low) — higher, 161
- PR#023 (EVI1 status: EVI1High) — higher, 165
- PR#025 (EVI1 status: EVI1Low) — higher, 197
- PR#026 (EVI1 status: EVI1Low) — higher, 189
- PR#027 (EVI1 status: EVI1Low) — higher, 164
- PR#028 (EVI1 status: EVI1Low) — higher, 182
- PR#029 (EVI1 status: EVI1Low) — higher, 221
- PR#030 (EVI1 status: EVI1Low) — higher, 180
- PR#031 (EVI1 status: EVI1Low) — higher, 204
- PR#032 (EVI1 status: EVI1Low) — higher, 148
- PR#033 (EVI1 status: EVI1Low) — higher, 178
- PR#034 (EVI1 status: EVI1Low) — higher, 160

Compound: COc1cccc2c1C(=O)c1c(O)c3c(c(O)c1C2=O)C[C@@](O)(C(C)=O)C[C@@H]3O[C@H]1C[C@H](N)[C@H](O)[C@H](C)O1 [Daunorubicine]
Experiment: as above
Conditions: 72 h
Protocol: as §1

Point of comparison: PR#028 (EVI1 status: EVI1Low), “area under dose-response viability curve” value 142. Against it:
- PR#002 (EVI1 status: EVI1High) — lower, 110
- PR#003 (EVI1 status: EVI1High) — lower, 68
- PR#004 (EVI1 status: EVI1High) — lower, 63.5
- PR#005 (EVI1 status: EVI1High) — lower, 87.5
- PR#006 (EVI1 status: EVI1High) — lower, 57.7
- PR#007 (EVI1 status: EVI1High) — lower, 110
- PR#008 (EVI1 status: EVI1High) — lower, 15
- PR#010 (EVI1 status: EVI1Low) — lower, 93.9
- PR#011 (EVI1 status: EVI1Low) — lower, 132
- PR#012 (EVI1 status: EVI1Low) — lower, 120
- PR#013 (EVI1 status: EVI1Low) — lower, 68.1
- PR#014 (EVI1 status: EVI1Low) — lower, 63.9
- PR#015 (EVI1 status: EVI1Low) — lower, 37
- PR#016 (EVI1 status: EVI1Low) — lower, 104
- PR#017 (EVI1 status: EVI1Low) — lower, 89.5
- PR#018 (EVI1 status: EVI1Low) — lower, 101
- PR#019 (EVI1 status: EVI1Low) — lower, 128
- PR#020 (EVI1 status: EVI1Low) — lower, 61.9
- PR#021 (EVI1 status: EVI1Low) — lower, 122
- PR#022 (EVI1 status: EVI1Low) — lower, 59.5
- PR#023 (EVI1 status: EVI1High) — lower, 138
- PR#024 (EVI1 status: EVI1High) — lower, 66.1
- PR#025 (EVI1 status: EVI1Low) — lower, 77.4
- PR#026 (EVI1 status: EVI1Low) — lower, 85.1
- PR#027 (EVI1 status: EVI1Low) — lower, 63.1
- PR#029 (EVI1 status: EVI1Low) — lower, 25.4
- PR#030 (EVI1 status: EVI1Low) — lower, 88.5
- PR#031 (EVI1 status: EVI1Low) — lower, 34.9
- PR#032 (EVI1 status: EVI1Low) — lower, 58
- PR#033 (EVI1 status: EVI1Low) — lower, 36.2
- PR#034 (EVI1 status: EVI1Low) — higher, 192
